In patent publication US11932850B2, “Cancer chemoprevention with STAT3 blockers” (Jill M. Siegfried, LLC, priority 2018, dated 2024):

What was measured:
[1] = molecular target: T1, pSTAT3-ubiquitin complexes in H1975 cells (Homo sapiens, UniProt P40763); assay: p-STAT3 immunoprecipitation and ubiquitin immunoblot; format: cell-based; conditions: H1975, 100 nM, 24 hr post-transfection
T1 construct: Post-transfection with either 100 nM CS3D or CS3M, H1975 were lysed in IP lysis buffer; endogenous in cells; host or cells: H1975
T1 sequence (P40763 2-770 limits assumed, one chain of several): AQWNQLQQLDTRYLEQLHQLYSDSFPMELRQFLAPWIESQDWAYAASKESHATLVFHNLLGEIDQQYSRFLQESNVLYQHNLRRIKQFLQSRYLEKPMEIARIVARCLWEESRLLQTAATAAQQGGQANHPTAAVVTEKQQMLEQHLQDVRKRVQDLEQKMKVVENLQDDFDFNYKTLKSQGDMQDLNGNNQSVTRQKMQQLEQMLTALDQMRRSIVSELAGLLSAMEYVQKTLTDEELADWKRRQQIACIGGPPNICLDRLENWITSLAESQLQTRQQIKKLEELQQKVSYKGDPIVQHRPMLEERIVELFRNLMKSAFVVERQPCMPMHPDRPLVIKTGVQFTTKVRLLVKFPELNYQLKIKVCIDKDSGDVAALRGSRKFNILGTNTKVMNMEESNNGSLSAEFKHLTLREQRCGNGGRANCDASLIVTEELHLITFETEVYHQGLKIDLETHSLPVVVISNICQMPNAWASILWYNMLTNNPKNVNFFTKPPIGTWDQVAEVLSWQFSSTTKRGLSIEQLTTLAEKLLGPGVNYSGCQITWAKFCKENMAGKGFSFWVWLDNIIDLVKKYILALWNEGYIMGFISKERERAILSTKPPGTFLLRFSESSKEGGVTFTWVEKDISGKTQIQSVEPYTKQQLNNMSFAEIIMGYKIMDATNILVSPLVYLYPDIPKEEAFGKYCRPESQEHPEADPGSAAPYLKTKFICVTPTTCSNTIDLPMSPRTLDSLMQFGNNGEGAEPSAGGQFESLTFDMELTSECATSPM

[2] = tested on: c-Myc in H1975-derived tumors; assay: c-Myc expression in H1975 xenograft tumors (Western blot); format: in vivo, nude mice; conditions: H1975 xenograft tumors, range among individual tumors
Description: FIGS. 7C and 7D show c-Myc is suppressed after CS3D treatment in vivo. At the end of the treatments, tumors were harvested, whole cell lysates were prepared and RNA extracted for target gene analysis by Western blotting and RT-qPCR GAPDH protein was used as internal loading control for immunoblotting. CS3D treated tumors (C4, C5, and C6) from separate animals show a decrease in c-Myc expression level relative to the CS3M-treated group (C1, C2, and C3) in 201T. […] Data are shown as mean+/−SEM.
To determine how CS3D blocks NSCLC growth, Western blot, qRT-PCR, and immunohistochemical analysis were performed to determine expression of c-Myc in residual tumors. These analyses identified a substantial downregulation of c-Myc protein (FIGS. 7C and 7D) and mRNA levels (FIG. 7E) in individual CS3D-treated tumors relative to CS3M-treated tumors in both 201T and H1975 xenografts. Some variability in protein levels among individual xenografts was observed (FIGS. 7C and 7D); the densitometry units for c-Myc protein after normalizing for GAPDH levels ranged from 0.11-0.16 units for CS3D-treated xenografts and 0.25-0.46 units for CS3M-treated tumors in H1975. Similarly, in 201T-derived tumors these measurements ranged from 0.015 to 0.51 units for CS3D and 0.28 to 0.97 units for CS3M. Even with this variability, the effect across the groups in both cell lines was significant (P<0.05 for H1975 and P<0.042 for 201T xenografts), with a mean decrease of 65% and 70%, respectively.

[3] = tested on: cleaved caspase-3 in H1975 xenografts; assay: IHC of cleaved caspase-3 in H1975 xenografts at end of treatment; format: in vivo, nude mice; conditions: after last day of treatment (day 14)
Description: For mRNA levels in tumor lysates, CS3D produced a 60-70% reduction of c-Myc gene expression relative to GAPDH compared to CS3M (FIG. 7E). […] Some cleaved caspase 3 staining was localized in nuclei, where caspase-3 is known to be active. Some caspase 3 staining was also evident in fibroblasts.
Immunohistochemical analysis: Tumors were excised for immunohistochemical (IHC) staining; 5-μm (micron) sections were cut from formalin-fixed paraffin-embedded tissue blocks, deparaffinized and rehydrated using successive washes of xylene followed by ethanol. Antigen retrieval was performed in a microwave oven (for 20 minutes) in an unmasking solution containing sodium citrate buffer followed by peroxidase blocking in 3% hydrogen peroxide. The sections were incubated in ABC blocking buffer (Vector laboratories Inc, Burlingame, California) for 1 hour at room temperature. Sections were then stained with H&E (hematoxylin and eosin) or subjected to sequential incubations with different primary antibodies and peroxidase-conjugated goat anti-rabbit secondary antibodies. […] Staining was graded as low (<30% positive cells per field, scored as 1), moderate (30-60% positive cells per field, scored as 2) or high (>60% positive cells per field, scored as 3).

[4] = tested on: Ki-67, p-STAT3, NF-κB in H1975 xenografts; assay: IHC of H1975 xenografts after 5 daily iv injections; format: in vivo, nude mice; conditions: H1975 xenografts
Description: Because tumors treated for several weeks with the STAT3 decoy were largely composed of debris (as illustrated in FIG. 11), xenografts were examined after only 5 daily tail vein injections to determine what cellular changes were induced prior to collapse of the intracellular tumor structure. […] Tumors derived from H1975 xenografs were analyzed by immunohistochemical staining for p-STAT3 after 5 daily iv injections of either STAT3 decoy or mutant decoy. […] This effect is quantified in FIG. 9B.
Images were captured at 40× magnification. A shift from 41% of cells was observed and scored as high-grade staining with CS3M treatment to 13% with high-grade staining in the presence of CS3D, with corresponding increases in moderate- and low-grade staining in the STAT3 decoy treated group (FIG. 12B). […] Bright field images were captured at 40× magnification. Frequency of high-grade staining for p-STAT3 differed between CS3D and CS3M treatment groups (23% in CS3D-treated and 51% in CS3M treated, with corresponding increase in low-grade staining in presence of the active decoy (FIG. 9B). Significant degradation of p-STAT3 protein was detected by IHC in tumors was observed after treatment with CS3D. Percent of high staining fields was reduced from 48% to 22% while percent of fields with low staining increased, P<0.001 (FIG. 9B).
Immunohistochemical analysis: Tumors were excised for immunohistochemical (IHC) staining; 5-μm (micron) sections were cut from formalin-fixed paraffin-embedded tissue blocks, deparaffinized and rehydrated using successive washes of xylene followed by ethanol. Antigen retrieval was performed in a microwave oven (for 20 minutes) in an unmasking solution containing sodium citrate buffer followed by peroxidase blocking in 3% hydrogen peroxide. The sections were incubated in ABC blocking buffer (Vector laboratories Inc, Burlingame, California) for 1 hour at room temperature. Sections were then stained with H&E (hematoxylin and eosin) or subjected to sequential incubations with different primary antibodies and peroxidase-conjugated goat anti-rabbit secondary antibodies. The following primary antibodies were used (at the indicated dilutions): cleaved caspase-3 (#9664, Cell Signaling, 1:300), p-STAT3 (#9145, Cell Signaling, 1:400), Ki67 (#ab15580, Abcam, 1:1000). Sections were developed with DAB and counterstained with hematoxylin. Bright field microscopy was performed using Leica DM 4000 B LED microscope and images were captured at 20× and 40× magnification using LASv4.7 software. IHC analysis was done as a blinded study with 100 images from each treatment group graded as low, moderate, or high. Staining was graded as low (<30% positive cells per field, scored as 1), moderate (30-60% positive cells per field, scored as 2) or high (>60% positive cells per field, scored as 3).

[5] = tested on: M1 macrophages, M2 macrophages, MDSCs; assay: Flow cytometry of immune cells isolated from lungs of NNK mice; format: in vivo; conditions: NNK 4 weeks then 1 week of drug administration
Description: STAT3 also plays a central role in immune evasion. STAT3 specifically orchestrates immunosuppression by promoting M2 macrophage and myeloid-derived suppressor cells (MDSCs) activity while suppressing M1 macrophage function [Su et al. Int. J. Mol. Science 19: pll:E1803, 2018]. Thus STAT3 inhibition by CS3D should favor an antitumor immune response by enhancing M1 macrophage activity.
Lungs from mice were digested with RPMI media containing collagenase and DNase to obtained single cell suspension. The cells were counted and 1×10^6 cells were staining with fluorescent labeled CD45, CD11b, MHC II, Ly6C and F4/80. The labeled cells were gated and data acquired on LSR fortessa (BD Biosciences) and further analysed by Flowjo.

STAT3 = STAT3 (Homo sapiens, UniProt P40763); conditions: Leong et al., 2003; cited from earlier work
STAT3, sequence (P40763 whole entry, species assumed): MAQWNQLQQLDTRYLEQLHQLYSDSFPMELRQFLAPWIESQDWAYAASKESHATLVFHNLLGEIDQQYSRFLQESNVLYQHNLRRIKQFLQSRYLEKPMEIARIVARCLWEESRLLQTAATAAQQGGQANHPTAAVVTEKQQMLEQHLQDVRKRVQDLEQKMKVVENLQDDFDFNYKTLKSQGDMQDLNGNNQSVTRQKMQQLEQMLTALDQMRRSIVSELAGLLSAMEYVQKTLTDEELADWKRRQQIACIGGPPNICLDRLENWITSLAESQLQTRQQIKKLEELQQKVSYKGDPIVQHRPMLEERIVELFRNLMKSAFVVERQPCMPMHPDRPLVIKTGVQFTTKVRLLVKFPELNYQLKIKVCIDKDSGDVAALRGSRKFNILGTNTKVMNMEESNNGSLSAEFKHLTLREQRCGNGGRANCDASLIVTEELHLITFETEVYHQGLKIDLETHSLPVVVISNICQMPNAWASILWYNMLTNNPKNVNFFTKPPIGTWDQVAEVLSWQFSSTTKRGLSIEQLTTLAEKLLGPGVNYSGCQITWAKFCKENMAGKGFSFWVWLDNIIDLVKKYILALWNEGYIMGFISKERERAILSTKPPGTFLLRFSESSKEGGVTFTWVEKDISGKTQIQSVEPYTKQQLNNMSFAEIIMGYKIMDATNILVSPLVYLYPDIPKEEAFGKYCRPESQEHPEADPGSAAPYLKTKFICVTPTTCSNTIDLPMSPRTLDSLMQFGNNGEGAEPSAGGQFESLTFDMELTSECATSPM

For “CS3M: mutant inactive control of CS3D, T-A base pair replacing G-C base pair at position 9 (SEQ ID NO. 6); unable to bind STAT3 (GATTTAAGGGAAATGCSCATTTCCC; cyclic decoy, mutant control, further chemistry not given here) [reference compound]”, the “ratio of pSTAT3-ubiquitin complex to STAT3 (densitometry)” value [1] was 0.74, the “c-Myc protein densitometry normalized for GAPDH” value [2] was 0.25-0.46 units and the “fields scoring high level of cleaved caspase-3” value [3] was 10%. The Ki-67 high-grade staining ([4]; 5 daily injections) was 41%, the “frequency of high-grade staining for p-STAT3” value ([4]; 5 daily iv injections) was 51% and the “percent of high staining fields for p-STAT3” value ([4]; second statement in b134 (FIG. 9B)) was 48%. For the same substance, the M2 macrophages [5] was 18.3%, the MDSCs [5] was 4.56% and the “binding to STAT3” value (STAT3) was “unable to bind STAT3”.
